Assay results as given in article PMC7293010, “DXO/Rai1 enzymes remove 5′-end FAD and dephospho-CoA caps on RNAs” (Nucleic Acids Research, 2020).

Columns and labels:
[1] = target: T1, SpRai1 (Schizosaccharomyces pombe, UniProt O13836); assay: X-ray crystal structure, crystal soaked […] h in […] ligand; assay type: binding; conditions: 1.9 Å; two magnesium ions observed; active site
T1 construct: gene din1; full-length, pET28a (for crystallization), E. coli BL21 (DE3) Rosetta, Ni-NTA and gel filtration
T1 sequence (O13836 1-352): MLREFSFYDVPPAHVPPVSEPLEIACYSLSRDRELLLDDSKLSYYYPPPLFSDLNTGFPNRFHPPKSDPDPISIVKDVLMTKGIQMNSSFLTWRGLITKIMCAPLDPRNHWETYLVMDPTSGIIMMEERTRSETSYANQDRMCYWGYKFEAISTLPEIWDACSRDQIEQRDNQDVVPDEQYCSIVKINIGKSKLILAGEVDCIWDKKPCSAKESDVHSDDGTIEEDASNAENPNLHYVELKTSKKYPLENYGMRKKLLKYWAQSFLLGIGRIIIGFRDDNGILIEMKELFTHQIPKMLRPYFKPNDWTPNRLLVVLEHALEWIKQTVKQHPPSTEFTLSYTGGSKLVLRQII

[2] = target: T2, mDXO (Mus musculus, UniProt O70348, E192S/E234Q/E253Q); assay: X-ray crystal structure, crystal soaked in […] CaCl2 for […] h, then in […] ligand for […] h; assay type: binding; conditions: 1.6 Å; active site; pH 6.8, 20°C
T2 construct: gene Dxo; full-length, His tag, pET28a, E. coli BL21 (DE3) Rosetta, Ni-NTA and gel filtration; residues 1-26 with His tag and 385-397 not seen in density
T2 sequence (O70348 1-397 E192S/E234Q/E253Q): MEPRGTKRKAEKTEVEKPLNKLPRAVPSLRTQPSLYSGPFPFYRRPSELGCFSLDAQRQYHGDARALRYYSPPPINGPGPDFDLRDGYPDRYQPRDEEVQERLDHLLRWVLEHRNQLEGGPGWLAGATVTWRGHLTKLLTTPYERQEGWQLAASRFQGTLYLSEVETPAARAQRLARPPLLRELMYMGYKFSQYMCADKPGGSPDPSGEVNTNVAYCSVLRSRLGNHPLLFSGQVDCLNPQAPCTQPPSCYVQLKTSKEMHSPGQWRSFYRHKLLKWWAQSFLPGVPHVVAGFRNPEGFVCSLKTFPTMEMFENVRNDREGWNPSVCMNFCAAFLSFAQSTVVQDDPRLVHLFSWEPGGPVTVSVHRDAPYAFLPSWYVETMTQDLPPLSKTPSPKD

| Compound | X-ray crystal structure, crystal soaked 1 h in 10 mM ligand [1] | X-ray crystal structure, crystal soaked in 20 mM CaCl2 for 1 h, then in 10 mM li [2] |
| --- | --- | --- |
| Cc1cc2nc3c(=O)[nH]c(=O)nc-3n(C[C@H](O)[C@H](O)[C@H](O)COP(=O)(O)OP(=O)(O)OC[C@H]3O[C@@H](n4cnc5c(N)ncnc54)[C@H](O)[C@@H]3OP(=O)(O)O)c2cc1C [3′-FADP] | good-quality electron density for FADP in complex with wild-type SpRai1 |  |
| CC(C)(COP(=O)(O)OP(=O)(O)OC[C@H]1O[C@@H](n2cnc3c(N)ncnc32)[C@H](O)[C@@H]1OP(=O)(O)O)[C@@H](O)C(=O)NCCC(=O)NCCS [CoA] |  | crystal structure of the E192S/E234Q/E253Q mutant of mDXO in complex with CoA |
